Reference: patent US10759994B2, “Luminogenic transition metal-based pyridyl complex and its use” (City University of Hong Kong, priority 2016, dated 2020)

Tests used:
[1] = SPANC reaction kinetics with BCN—OH by UV/Vis absorption spectroscopy; type: physicochemical; details: for Second-order rate constants (k2): reaction with BCN—OH in MeOH at 298 K
Procedure: The reactivity of the iridium(III) and ruthenium(II) pyridyl complexes toward a strained alkyne derivative BCN—OH in MeOH at 298 K was studied. The second-order rate constants (k2) of the strain-promoted alkyne-nitrone cycloaddition (SPANC) reaction of complexes 1a-5b are shown in Tables 3 and 4, respectively. The k2 values of the iridium(III) complexes 1a, 2a and 3a and the ruthenium(II) complexes 1b, 2b, 3b, 4b, and 5b were determined to be 0.116-0.238 and 0.078-3.06 M^−1 s^−1, respectively, which are about 1.95-76.5 times that of the free ligand bpy-nitrone-Me (k2=0.040 M^−1 s^−1). This is attributed to the electron-withdrawing effects of the positively-charged metal centers. […] The accelerated reaction kinetics is assumed to originate from the presence of the more electron-withdrawing phenyl ring at the N-position of the nitrone moiety. Thus, the accelerated reaction kinetics render complexes 1a-5b highly advantageous bioorthogonal probes for biomolecules modified with a strained alkyne moiety.
More specifically, the SPANC reaction kinetics of complexes 1a 5b was studied by UV/Ms absorption spectroscopy. For the ligand bpy-nitrone-Me and the iridium(III) complexes 1a-3a, the k2 values were measured under pseudo first order conditions with a 25- to 100-fold excess of BCN—OH in MeOH at 298 K. The reaction process was followed by monitoring the exponential decay of the absorbance at 306-342 nm upon addition of BCN—OH. The final concentrations of the nitrone compounds were 10 μM and those of BCN—OH ranged from 0.25 to 1.0 mM. For the ruthenium(II) complexes 1b-5b, the k2 values were determined under pseudo first order conditions with a 50- to 200-fold excess of BCN—OH in MeOH at 298 K. The reaction process was monitored by following the exponential decay of the absorbance at 329 nm. The final concentrations of the complexes were 10 μM and those of BCN—OH ranged from 0.5 to 2.0 mM. The data were fitted to a single-exponential equation to give the observed rate constants (kobs), which were plotted against the concentrations of BCN—OH to obtain the k2 from the slope of the plots.

[2] = target: T1, BCN-BSA (Bos taurus, UniProt P02769); experiment: Emission enhancement upon reaction with BCN-BSA; type: biochemical, Bovine; details: complex 10 μM, protein 3.78 μM, aerated potassium phosphate buffer (50 mM, pH 7.4)/DMSO (99:1, v/v), 298 K
T1 construct: purchased Calbiochem

[3] = tested on: HeLa cells; experiment: Cellular uptake by ICP-MS in HeLa cells; type: cell-based; details: complex 40 μM, 12 h; for Amount of ruthenium associated with an average HeLa cell: 37° C., ICP-MS, untreated cells; for Uptake by BCN-C10-pretreated cells relative to untreated cells: HeLa cells, BCN-C10 pretreatment
Procedure: The cellular uptake of complexes 1a-5b was examined by ICP-MS. […] This finding should originate from intracellular esterases that convert the ester moieties of complex 3a into negatively charged carboxyl groups, enhancing its intracellular retention. […] Upon incubation of the untreated cells with the complexes, the amounts of ruthenium taken up by an average cell followed the order: 1 b<3b<5b<2b<4b, which seems to be in accordance with their lipophilic character. […] These findings indicate that the accumulation of the complexes 1 b-5b in BCN-C10-pretreated cells is not only associated with their lipophilicity, but also strongly affected by the bioorthogonal labeling of BCN-C10.
More specifically, for determining the cellular uptake of complexes 1a-3a, CHO-K1 cells were incubated in growth medium/DMSO (99:1, v/v) containing the iridium(III) complex (5 μM) in the dark at 37° C. under a 5% CO2 atmosphere for 1 h. The medium was removed, and the cell layer was thoroughly washed with PBS (1 mL×3). The cells were trypsinized by trypsin-EDTA (500 μL) and harvested with PBS. The resultant solution (2 mL) was heated with 65% HNO3 (2 mL) at 70° C. for 2 h, cooled to room temperature, and analyzed using an Elan 6100 DCR-ICP-MS (PerkinElmer SCIEX Instruments). For determining the cellular uptake of complexes 1 b 5b, HeLa cells with or without pretreatment of BCN-C10 were incubated in growth medium/DMSO (99:1, v/v) containing the ruthenium(II) complexes (40 μM) in the dark at 37° C. under a 5% CO2 atmosphere. After incubation for 12 h, the medium was removed and the cells were thoroughly washed with PBS (1 mL×3). The cells were typsinized by trypsin-EDTA (500 μL) and harvested with PBS. The resultant solution (1.5 mL) was heated with 65% HNO3 (1 mL) at 60° C. for 2 h, cooled to room temperature, and analyzed using an Elan 6100 DCR-ICP-MS.

[4] = tested on: HeLa cells; experiment: LSCM imaging of bioorthogonal labeling of BCN-C10 in HeLa cells; type: cell-based; details: for Subcellular structure stained / Staining pattern over time: BCN-C10-pretreated HeLa cells; for Intracellular emission with BCN-C10 pretreatment: HeLa cells, BCN-C10 200 μM 1 h, λex=488 nm; for Intracellular emission with BCN-C10 pretreatment / Staining pattern over time: complex 40 μM
Description: (“1 b”, “2b”, “3b”, “4b”, and “5b” indicate the complexes of the present invention; “—BCN-C10” means BCN-C10-untreated HeLa cells; “+BCN-C10” means BCN-C10-pretreated HeLa cells).
(“2b” and “5b” indicate the complexes of the present invention; “—BCN-C10” means BCN-C10-untreated HeLa cells; “+BCN-C10” means BCN-C10-pretreated HeLa cells).
The bioorthogonal labeling properties of complexes 1a-5b were investigated using CHO-K1 or HeLa cells with or without pretreatment of an exogenous molecule BCN-010, i.e., a BCN-modified decane molecule. The intracellular distribution of BCN-C10 was then imaged using laser scanning confocal microscopy (LSCM).
In the study of the ruthenium(II) nitrone complexes, live HeLa cells were treated with BCN-C10 (200 μM) for 1 h, thoroughly washed with PBS, then incubated with complexes 1b-5b (40 μM) for 12 h, and finally imaged by LSCM. More specifically, HeLa cells were incubated in growth medium/DMSO (99:1, v/v) containing BCN-C10 (200 μM) in the dark at 37° C. under a 5% CO2 atmosphere for 1 h. After treatment, the medium was removed, the cells were washed thoroughly with PBS (1 mL×3), and then incubated in growth medium/DMSO (99:1, v/v) containing the ruthenium(II) complex (40 μM) in the dark at 37° C. under a 5% CO2 atmosphere. After incubation for 3, 6, 12, or 24 h, the culture medium was removed and the cell was were washed with PBS (1 mL×3). The coverslip was mounted onto a sterilized glass slide and then imaging was performed using a Leica TCS SPE confocal microscope with an oil immersion 63× objective len and an excitation wavelength at 488 nm. […] Additionally, BCN-C10-pretreated cells were incubated with complexes 2b and 5b for different time periods (3, 6, 12, and 24 h) (FIG. 6). […] The regioselective staining is assumed to be closely related to the subcellular distribution of BCN-C10, and the lipophilicity and reactivity of the complexes.

T1 sequence (P02769 25-607): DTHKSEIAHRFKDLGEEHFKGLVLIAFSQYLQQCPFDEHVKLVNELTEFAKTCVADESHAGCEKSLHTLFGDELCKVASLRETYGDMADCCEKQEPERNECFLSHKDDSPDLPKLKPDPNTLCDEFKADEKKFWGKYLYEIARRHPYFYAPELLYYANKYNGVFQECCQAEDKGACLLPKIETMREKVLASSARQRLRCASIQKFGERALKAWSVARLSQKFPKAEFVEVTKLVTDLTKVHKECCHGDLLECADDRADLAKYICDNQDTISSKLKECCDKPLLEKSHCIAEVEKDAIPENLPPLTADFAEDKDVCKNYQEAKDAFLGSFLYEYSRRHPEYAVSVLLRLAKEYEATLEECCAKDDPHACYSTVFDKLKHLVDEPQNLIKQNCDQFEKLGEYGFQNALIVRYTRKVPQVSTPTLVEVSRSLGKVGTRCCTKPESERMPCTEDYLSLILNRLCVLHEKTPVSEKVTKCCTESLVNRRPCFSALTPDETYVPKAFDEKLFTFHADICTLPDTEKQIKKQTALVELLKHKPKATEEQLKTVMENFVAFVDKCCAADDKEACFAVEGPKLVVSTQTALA

Row | Compound | Second-order rate constants (k2) [1] | I/Io BCN-BSA [2] | Amount of ruthenium associated with an average HeLa cell [3] | Subcellular structure stained [4] | Intracellular emission with BCN-C10 pretreatment ([4]; 12 h) | Uptake by BCN-C10-pretreated cells relative to untreated cells [3] | Staining pattern over time ([4]; 6 h) | Staining pattern over time ([4]; 12 h) | Staining pattern over time ([4]; 24 h) | k2 relative to those of the N-methyl nitrone complexes 1b, 2b, 3b and 4b ([1]; BCN—OH in MeOH at 298 K)
1 | Cc1ccnc(-c2cc(/C=[N+](/C)[O-])ccn2)c1.F[P-](F)(F)(F)(F)F.F[P-](F)(F)(F)(F)F.[Ru+2].c1ccc(-c2ccccn2)nc1.c1ccc(-c2ccccn2)nc1 [Complex 1b] | 0.084 ± 0.005 M⁻¹ s⁻¹ | 10.7 | 0.31 ± 0.01 fmol | punctate cell surface staining | weak but enhanced emission | – | – | – | – | –
2 | CCCCNC(=O)c1ccnc(-c2cc(C(=O)NCCCC)ccn2)c1.CCCCNC(=O)c1ccnc(-c2cc(C(=O)NCCCC)ccn2)c1.Cc1ccnc(-c2cc(/C=[N+](/C)[O-])ccn2)c1.F[P-](F)(F)(F)(F)F.F[P-](F)(F)(F)(F)F.[Ru+2] [Complex 2b] | 0.086 ± 0.005 M⁻¹ s⁻¹ | 16.9 | 1.32 ± 0.08 fmol | cell membrane staining | intense subcellular staining | 8.89 fold | selectively lighted up the cell surface | intense cell membrane staining plus some sharp vesicles in the cytoplasmic regions adjacent to cell membrane | intense granular staining in the cytoplasm | –
3 | Cc1ccnc(-c2cc(/C=[N+](\[O-])c3ccccc3)ccn2)c1.F[P-](F)(F)(F)(F)F.F[P-](F)(F)(F)(F)F.[Ru+2].c1ccc(-c2ccccn2)nc1.c1ccc(-c2ccccn2)nc1 [Complex 5b] | – | 9.6 | 1.09 ± 0.03 fmol | cell membrane staining | intense subcellular staining | 2.48 fold | selectively lighted up the cell surface | intense cell membrane staining plus some sharp vesicles in the cytoplasmic regions adjacent to cell membrane | intense granular staining in the cytoplasm | at least 36 fold
